Data as given in ChEMBL document CHEMBL5465560, “Selectivity Literature for EUbOPEN Chemogenomic Library” (2024).
One block for each compound: values may come before it.

Tests used:
[1] = molecular target: RAC-gamma serine/threonine-protein kinase (Homo sapiens, UniProt Q9Y243); details: at 10 µM
[2] = molecular target: Serine/threonine-protein kinase SIK2 (Homo sapiens) (UniProt Q9H0K1); test: Selectivity interaction (Ambit KINOMEscan and KiNATiv profiling in Jurkat cells) EUB0000090b SIK2; type: cell-based; details: at 1 µM
Serine/threonine-protein kinase SIK2 (Homo sapiens), sequence (Q9H0K1 whole entry, looked up): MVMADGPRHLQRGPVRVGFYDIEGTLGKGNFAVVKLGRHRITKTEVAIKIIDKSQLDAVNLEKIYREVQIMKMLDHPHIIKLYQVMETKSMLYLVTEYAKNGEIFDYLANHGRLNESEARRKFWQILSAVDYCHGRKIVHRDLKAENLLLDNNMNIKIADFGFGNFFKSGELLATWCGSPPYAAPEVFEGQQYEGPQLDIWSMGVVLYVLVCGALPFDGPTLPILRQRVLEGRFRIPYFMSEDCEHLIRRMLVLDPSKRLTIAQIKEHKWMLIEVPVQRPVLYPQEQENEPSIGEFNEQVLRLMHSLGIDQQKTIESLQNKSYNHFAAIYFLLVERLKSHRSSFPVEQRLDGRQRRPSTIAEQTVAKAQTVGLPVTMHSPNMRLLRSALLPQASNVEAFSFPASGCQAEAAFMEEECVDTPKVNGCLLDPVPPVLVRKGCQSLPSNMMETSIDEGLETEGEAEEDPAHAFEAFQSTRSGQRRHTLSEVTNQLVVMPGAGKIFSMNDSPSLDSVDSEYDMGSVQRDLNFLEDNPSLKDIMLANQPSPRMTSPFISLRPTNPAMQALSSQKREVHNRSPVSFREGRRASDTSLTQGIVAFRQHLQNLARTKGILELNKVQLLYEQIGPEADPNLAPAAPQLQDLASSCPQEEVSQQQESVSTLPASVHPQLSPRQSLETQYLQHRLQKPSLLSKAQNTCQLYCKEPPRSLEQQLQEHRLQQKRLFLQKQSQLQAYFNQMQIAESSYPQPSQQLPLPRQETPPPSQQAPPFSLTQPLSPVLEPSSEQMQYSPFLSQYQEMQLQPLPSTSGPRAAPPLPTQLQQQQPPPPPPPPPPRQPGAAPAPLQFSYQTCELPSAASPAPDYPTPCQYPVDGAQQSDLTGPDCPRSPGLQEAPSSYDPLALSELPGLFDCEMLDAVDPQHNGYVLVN

[3] = molecular target: Tyrosine-protein kinase JAK2 (Homo sapiens, UniProt O60674); test: Selectivity interaction (SelectScreen profiling (Invitrogen)) EUB0000607a JAK2; details: at 2 µM
[4] = molecular target: T1, Serine/threonine-protein kinase Nek9 (Homo sapiens) (UniProt Q8TD19); test: Selectivity interaction (ActivX KiNativ screen (ex vivo kinase selectivity in human PBMCs)) EUB0001619a NEK9; type: cell-based; details: PBMC, at 1 µM
T1 sequence (whole entry): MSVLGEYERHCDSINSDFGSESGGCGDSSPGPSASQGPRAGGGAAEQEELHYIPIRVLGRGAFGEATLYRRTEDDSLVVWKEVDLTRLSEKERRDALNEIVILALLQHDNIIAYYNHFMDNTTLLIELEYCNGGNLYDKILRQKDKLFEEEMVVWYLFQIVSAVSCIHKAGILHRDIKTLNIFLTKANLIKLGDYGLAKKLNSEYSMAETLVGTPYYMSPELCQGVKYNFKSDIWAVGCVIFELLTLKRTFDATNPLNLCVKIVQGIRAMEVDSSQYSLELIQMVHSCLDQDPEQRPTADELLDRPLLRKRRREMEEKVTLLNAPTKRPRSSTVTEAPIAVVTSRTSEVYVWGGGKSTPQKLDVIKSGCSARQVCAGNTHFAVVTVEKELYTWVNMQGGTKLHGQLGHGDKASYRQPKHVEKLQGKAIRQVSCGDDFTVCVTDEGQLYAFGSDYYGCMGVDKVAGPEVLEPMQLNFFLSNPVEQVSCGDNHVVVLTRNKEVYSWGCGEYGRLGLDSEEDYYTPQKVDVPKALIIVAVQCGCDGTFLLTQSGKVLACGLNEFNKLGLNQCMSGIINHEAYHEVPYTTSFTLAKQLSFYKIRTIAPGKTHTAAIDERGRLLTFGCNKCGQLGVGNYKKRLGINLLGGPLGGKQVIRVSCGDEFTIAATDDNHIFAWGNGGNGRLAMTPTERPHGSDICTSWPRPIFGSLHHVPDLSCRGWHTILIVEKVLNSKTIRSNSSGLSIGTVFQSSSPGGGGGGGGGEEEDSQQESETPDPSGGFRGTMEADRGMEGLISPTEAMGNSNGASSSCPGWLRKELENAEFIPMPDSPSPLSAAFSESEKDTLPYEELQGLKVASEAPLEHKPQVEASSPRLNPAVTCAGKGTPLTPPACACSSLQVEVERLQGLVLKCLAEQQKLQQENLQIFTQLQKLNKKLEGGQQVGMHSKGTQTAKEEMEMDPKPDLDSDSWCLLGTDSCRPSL

[5] = molecular target: MAP/microtubule affinity-regulating kinase 3 (Homo sapiens) (UniProt P27448); test: Selectivity interaction (ActivX KiNativ screen (kinase selectivity in THP-1 cell lysates)) EUB0000639a MARK3; type: subcellular; details: lysate, at 0.2 µM
MAP/microtubule affinity-regulating kinase 3 (Homo sapiens), sequence (P27448 whole entry, looked up): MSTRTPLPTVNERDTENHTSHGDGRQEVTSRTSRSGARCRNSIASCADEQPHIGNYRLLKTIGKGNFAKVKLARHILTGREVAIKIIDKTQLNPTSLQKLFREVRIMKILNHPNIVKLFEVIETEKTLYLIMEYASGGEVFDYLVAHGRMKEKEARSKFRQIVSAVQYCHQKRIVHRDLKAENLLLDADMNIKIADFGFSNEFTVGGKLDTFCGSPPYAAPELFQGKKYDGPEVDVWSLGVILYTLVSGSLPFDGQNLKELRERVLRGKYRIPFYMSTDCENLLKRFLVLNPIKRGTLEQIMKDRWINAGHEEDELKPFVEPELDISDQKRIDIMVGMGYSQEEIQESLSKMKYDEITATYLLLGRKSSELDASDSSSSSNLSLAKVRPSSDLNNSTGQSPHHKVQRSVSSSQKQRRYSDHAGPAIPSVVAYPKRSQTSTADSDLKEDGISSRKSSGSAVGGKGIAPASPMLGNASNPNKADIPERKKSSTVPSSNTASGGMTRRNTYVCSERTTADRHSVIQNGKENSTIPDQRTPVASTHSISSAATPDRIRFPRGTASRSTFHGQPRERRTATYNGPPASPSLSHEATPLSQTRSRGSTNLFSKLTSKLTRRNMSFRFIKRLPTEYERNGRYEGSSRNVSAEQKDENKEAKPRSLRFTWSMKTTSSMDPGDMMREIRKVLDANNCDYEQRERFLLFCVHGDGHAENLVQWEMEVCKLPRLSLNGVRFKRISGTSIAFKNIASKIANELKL

[6] = molecular target: Serine/threonine-protein kinase WNK2 (Homo sapiens) (UniProt Q9Y3S1); test: Selectivity interaction (ActivX KiNativ screen (kinase selectivity in THP-1 cell lysates)) EUB0000639a WNK2; type: subcellular; details: lysate, at 0.2 µM
Serine/threonine-protein kinase WNK2 (Homo sapiens), sequence (Q9Y3S1 whole entry): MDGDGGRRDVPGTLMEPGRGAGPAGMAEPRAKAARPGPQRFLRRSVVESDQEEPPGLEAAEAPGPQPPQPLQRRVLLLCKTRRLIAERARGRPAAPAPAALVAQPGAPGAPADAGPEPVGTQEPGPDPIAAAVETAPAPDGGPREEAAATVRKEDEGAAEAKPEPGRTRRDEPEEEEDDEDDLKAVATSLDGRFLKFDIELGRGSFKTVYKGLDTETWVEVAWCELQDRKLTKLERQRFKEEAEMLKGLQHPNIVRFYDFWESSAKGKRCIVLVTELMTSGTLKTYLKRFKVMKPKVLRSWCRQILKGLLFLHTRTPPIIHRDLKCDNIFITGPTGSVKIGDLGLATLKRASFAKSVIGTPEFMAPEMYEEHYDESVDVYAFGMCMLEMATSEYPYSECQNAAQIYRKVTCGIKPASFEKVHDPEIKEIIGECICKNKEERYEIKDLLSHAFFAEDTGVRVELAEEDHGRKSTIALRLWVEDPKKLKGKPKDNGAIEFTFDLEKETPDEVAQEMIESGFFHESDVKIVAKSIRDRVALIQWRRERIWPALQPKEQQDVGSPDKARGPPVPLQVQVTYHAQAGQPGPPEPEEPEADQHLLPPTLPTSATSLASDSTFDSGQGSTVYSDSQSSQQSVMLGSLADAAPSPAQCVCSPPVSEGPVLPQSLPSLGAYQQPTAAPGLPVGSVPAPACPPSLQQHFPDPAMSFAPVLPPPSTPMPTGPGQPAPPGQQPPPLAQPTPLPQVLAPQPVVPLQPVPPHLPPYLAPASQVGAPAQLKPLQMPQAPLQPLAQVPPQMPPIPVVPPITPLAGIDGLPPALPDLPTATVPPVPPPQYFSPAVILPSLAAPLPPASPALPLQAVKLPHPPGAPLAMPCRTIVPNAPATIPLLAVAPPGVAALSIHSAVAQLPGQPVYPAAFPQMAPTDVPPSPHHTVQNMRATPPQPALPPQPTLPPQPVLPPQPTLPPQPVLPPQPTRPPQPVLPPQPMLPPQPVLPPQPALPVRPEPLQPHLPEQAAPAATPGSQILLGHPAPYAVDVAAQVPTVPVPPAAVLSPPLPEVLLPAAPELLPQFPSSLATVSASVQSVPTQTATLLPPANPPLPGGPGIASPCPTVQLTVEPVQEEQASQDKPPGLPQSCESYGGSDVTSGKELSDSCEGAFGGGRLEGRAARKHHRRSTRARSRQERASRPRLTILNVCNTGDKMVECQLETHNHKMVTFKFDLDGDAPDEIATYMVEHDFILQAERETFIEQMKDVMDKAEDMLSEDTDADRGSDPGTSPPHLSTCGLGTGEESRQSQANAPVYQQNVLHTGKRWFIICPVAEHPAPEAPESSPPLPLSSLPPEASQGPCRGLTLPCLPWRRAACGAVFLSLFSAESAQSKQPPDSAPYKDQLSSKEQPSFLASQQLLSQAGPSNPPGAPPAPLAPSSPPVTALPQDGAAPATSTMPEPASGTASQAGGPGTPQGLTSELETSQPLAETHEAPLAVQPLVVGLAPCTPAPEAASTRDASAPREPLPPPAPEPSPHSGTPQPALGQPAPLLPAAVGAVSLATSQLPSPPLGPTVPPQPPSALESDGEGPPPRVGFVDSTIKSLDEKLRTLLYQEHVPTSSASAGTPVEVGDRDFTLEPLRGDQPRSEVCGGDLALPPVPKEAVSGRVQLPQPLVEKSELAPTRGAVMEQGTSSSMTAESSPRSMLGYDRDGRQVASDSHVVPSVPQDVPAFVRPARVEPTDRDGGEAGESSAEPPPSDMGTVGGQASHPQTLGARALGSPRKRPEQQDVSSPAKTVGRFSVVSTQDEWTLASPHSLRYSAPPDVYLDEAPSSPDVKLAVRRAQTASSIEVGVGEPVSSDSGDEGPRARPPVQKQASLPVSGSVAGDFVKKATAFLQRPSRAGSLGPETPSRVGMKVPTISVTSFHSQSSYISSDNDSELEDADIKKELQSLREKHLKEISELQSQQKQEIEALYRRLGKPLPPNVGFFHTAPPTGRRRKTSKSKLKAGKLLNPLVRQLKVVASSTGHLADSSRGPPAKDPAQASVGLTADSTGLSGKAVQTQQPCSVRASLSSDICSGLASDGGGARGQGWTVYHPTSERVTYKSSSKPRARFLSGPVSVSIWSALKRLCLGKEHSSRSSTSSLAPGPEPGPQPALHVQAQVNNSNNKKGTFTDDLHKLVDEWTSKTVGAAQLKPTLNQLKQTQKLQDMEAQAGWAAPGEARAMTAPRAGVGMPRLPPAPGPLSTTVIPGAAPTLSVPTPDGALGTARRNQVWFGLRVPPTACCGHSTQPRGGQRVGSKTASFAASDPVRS

[7] = molecular target: Tyrosine-protein kinase Srms (Homo sapiens) (UniProt Q9H3Y6); test: Selectivity interaction (KinomeScan (DiscoverX)) EUB0000229b SRMS; details: at 10 µM
[8] = molecular target: T2, Interleukin-1 receptor-associated kinase 4 (Homo sapiens) (UniProt Q9NWZ3); test: Selectivity interaction (ProQinase) EUB0000171b IRAK4
T2 sequence (whole entry): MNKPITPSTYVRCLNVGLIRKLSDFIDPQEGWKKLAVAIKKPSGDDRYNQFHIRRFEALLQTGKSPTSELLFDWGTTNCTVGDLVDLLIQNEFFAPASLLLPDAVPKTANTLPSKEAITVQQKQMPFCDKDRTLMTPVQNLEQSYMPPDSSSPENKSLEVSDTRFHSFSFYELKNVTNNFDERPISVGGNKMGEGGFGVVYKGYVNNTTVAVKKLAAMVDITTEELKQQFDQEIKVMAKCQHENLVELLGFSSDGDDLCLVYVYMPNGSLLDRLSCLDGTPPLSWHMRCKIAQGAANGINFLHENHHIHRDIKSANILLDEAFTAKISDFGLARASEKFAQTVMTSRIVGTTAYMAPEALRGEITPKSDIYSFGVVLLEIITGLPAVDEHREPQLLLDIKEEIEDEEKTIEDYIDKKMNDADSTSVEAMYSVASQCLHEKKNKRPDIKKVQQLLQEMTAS

[9] = molecular target: T3, Dual specificity mitogen-activated protein kinase kinase 5 (Homo sapiens) (UniProt Q13163); test: Selectivity interaction (KinomeScan (DiscoverX)) EUB0000092b MAP2K5; details: at 10 µM
T3 sequence (whole entry): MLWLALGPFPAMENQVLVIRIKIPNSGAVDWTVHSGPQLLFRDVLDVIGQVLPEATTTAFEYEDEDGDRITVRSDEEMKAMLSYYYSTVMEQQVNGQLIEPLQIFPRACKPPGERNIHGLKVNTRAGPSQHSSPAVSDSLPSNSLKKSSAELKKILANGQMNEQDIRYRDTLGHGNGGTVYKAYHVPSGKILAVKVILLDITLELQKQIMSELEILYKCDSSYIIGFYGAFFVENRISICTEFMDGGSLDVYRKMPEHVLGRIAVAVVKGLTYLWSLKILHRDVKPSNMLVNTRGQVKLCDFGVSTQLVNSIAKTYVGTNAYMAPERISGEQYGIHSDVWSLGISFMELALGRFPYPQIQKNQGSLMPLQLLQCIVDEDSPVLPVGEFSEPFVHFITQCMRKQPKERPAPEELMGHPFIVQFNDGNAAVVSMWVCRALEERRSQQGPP

[10] = molecular target: Phosphatidylinositol 4,5-bisphosphate 3-kinase catalytic subunit beta isoform (Homo sapiens) (UniProt P42338); test: Selectivity interaction (Adapta Assay) EUB0001632a PIK3CB; details: at 10 µM
Phosphatidylinositol 4,5-bisphosphate 3-kinase catalytic subunit beta isoform (Homo sapiens), sequence (P42338 whole entry, looked up, canonical isoform): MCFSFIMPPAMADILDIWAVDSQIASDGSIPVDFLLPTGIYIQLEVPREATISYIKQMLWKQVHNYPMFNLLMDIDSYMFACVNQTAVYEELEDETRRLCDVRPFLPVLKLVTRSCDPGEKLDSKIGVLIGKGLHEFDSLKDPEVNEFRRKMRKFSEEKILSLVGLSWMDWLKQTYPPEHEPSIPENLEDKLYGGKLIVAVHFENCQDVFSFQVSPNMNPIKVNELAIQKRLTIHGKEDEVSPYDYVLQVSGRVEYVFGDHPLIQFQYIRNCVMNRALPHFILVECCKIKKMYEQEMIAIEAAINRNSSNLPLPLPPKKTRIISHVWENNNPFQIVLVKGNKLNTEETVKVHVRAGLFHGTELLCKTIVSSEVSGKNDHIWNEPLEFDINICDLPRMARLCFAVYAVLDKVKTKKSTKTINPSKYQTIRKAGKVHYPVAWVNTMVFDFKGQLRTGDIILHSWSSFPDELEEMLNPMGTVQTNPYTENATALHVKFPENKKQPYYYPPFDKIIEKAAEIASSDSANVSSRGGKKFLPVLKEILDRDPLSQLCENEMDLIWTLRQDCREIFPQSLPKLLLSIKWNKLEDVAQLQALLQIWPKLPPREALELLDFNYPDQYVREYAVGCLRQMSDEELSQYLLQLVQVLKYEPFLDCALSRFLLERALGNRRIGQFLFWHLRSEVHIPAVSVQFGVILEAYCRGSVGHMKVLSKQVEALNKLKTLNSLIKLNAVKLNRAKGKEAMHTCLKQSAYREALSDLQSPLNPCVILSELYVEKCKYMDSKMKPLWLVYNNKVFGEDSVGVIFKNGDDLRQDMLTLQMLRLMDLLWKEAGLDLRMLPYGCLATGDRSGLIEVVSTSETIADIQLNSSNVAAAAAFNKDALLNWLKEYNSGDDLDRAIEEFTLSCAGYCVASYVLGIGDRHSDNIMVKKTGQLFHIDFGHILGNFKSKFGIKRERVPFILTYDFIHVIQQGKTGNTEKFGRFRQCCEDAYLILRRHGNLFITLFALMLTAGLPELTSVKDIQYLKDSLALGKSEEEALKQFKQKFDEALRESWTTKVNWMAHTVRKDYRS

% of control [1]: 100%
Compound: CCN(CC)CCCCNc1ncc2cc(-c3cc(OC)cc(OC)c3)c(NC(=O)NC(C)(C)C)nc2n1

Compound: CN(C)C/C=C/C(=O)Nc1ccc(C(=O)N2CCCC(Nc3ncc(Cl)c(-c4c[nH]c5ccccc45)n3)C2)cc1 (stereo unspecified)
% of control [2]: 93%

Compound: CNC(=O)Nc1ccc(-c2nc(N3CC4CCC(C3)O4)c3cnn(C4CCC5(CC4)OCCO5)c3n2)cc1
% of inhibition [3]: 2%

Compound: N#Cc1cccc(-c2c[nH]c3ncnc(N4CCOCC4)c23)c1
% of inhibition [4]: 1%

% of inhibition [5]: 19.8%
% of inhibition [6]: -12%
Compound: CC[C@@H]1[C@H](F)C(=O)N[C@@H]1COc1nccc2cc(C(N)=O)c(OC)cc12 [ZIMLOVISERTIB]

Compound: COc1cc(N(C)c2ccnc3ccc(C(F)(F)F)cc23)cc(OC)c1OC
% binding [7]: 60%

% of control ([8]; at 1 µM): 85%
% of control ([8]; at 5 µM): 56%
Compound: C=CC(=O)Nc1cccc(C(=O)Nc2ccc(Nc3cc(-c4[nH]c(SC)nc4C)ccn3)cc2)c1

Compound: CCC(=O)N1CCN(c2ccc(-n3c(=O)ccc4cnc5ccc(-c6cnc7ccccc7c6)cc5c43)cc2C(F)(F)F)CC1
% of control [9]: 100%

% of inhibition [10]: -11.2%
Compound: Cn1cc(-n2cnc3c(NCc4nc5cc(Cl)c(Cl)cc5[nH]4)nc(N4CCOCC4)nc32)cn1
